Assay results reported in patent publication US12138322B2, “Method of preventing the development of melanoma” (Vector Vitale IP LLC, priority 2019, dated 2024).
Marks after values point to notes of the source that are not given here.

What was measured:
[1] = test system: B16 melanoma cells; assay: Experimental model of hematogenous B16 melanoma metastasis (lungs), intravenous administration; assay type: in vivo, C57Bl mice; conditions: IV 60 μg/mouse; for Number of animals in the group with metastases / Number of metastases/mouse (M ± m) / Volume of metastases/mouse (M ± m): lungs at day 26
Method: An experimental model of hematogenous metastasis was used in the experiment which allowed for the inoculation of B16 melanoma cells. The characteristic of these cells is given in Example 1. The cells were cultured in vitro under standard conditions. For transplantation, tumor cells were removed from the substrate with 0.02% Versene solution and the suspension cellularity and viability were evaluated in the presence of trypan blue in a hemocytometer and the suspension was adjusted to a concentration of […]. Melanoma cells were injected intracutaneously (IC) in 0.05 ml of suspension (0.5×10^6 cells/mouse) into the back area of the animal. Part of the coat on the back of mice was removed with a depilatory cream at 24 hours before tumor cell inoculation. Cells isolated from B16 mouse melanoma were used in the experiment. Cells were cultured in vitro under standard conditions. For inoculation, tumor cells were removed from the substrate with 0.02% Versene solution. The cellularity and viability of the obtained cell suspension were evaluated with a hemocytometer in presence of a trypan blue. Cell concentration was adjusted with saline to 1×10^6 cells/ml. Melanoma cells were injected IV in 0.2 ml of suspension (0.2×10^6 cells/mouse) into the lateral tail vein.
^64Zne(Asp)2 was dissolved in deuterium-depleted water. The composition was injected intravenously using a microinjection syringe at a dose of 60 μg of ^64Zne/mouse: two injections at a dose of 30 μg/mouse, each in a volume of 0.3 ml (0.6 ml in total), for 4 hours. The injections were given every other day for 10 days (5 injections in total). The first injection of the inventive composition was given 45 minutes or 24 hours after inoculation of tumor cells. At day 26 after IV injection of tumor cells the lungs were excised from all animals in each group and the number and volume of metastases were then determined. C57Bl mice (8 mice per group) at the age of 12-14 weeks, weighing 25-27 g were used in the experiment. The conditions in which animals were maintained are described in Example 1 above.
The ^64Zne(Asp)2 composition was injected intravenously into the animal's lateral tail vein using a Micro-Fine Plus microinjection syringe (Becton Dickinson). The injection site was cleaned with 96% ethanol.
The animals were divided into experimental groups as follows: • Group No. 1: control group, mice injected IV with B16 melanoma cells+IV injection of the solvent (deuterium-depleted water); • Group No. 2: mice injected IV with B16 melanoma cells+IV injection of ^64Zne(Asp)2 24 hours after the tumor cells were inoculated; • Group No. 3: mice injected IV with B16 melanoma cells+IV injection of ^64Zne(Asp)2 45 minutes after the tumor cells were inoculated
On day 26 after IV injection of tumor cells the lungs were excised from all animals in each group and the number and volume of metastases were then determined.
The volume of metastases was calculated using the following formula for the volume of a sphere:
V= 4/3×πr^3, where V is the metastasis volume (mm^3); r is the metastasis radius (mm).

[2] = test system: melanoma; assay: Simultaneous intratumoral and intravenous administration (data not shown); assay type: in vivo
Method: A possibility of simultaneous intratumoral and intravenous administration of the composition comprising 64Zne(Asp)2 was assessed in additional experiments (data not shown).

[3] = first injection 45 min after tumor cells were inoculated
[4] = first injection 24 hours after tumor cells were inoculated

N[C@@H](CC(=O)[O-])C(=O)[O-].[Zn+2] [^64Zne(Asp)2, Zinc L-aspartate]
number and volume of metastases vs. control ([1]; 45 min or 24 hours after inoculation): statistically significant decrease | Number of animals in the group with metastases [1, 3]: 75% | Number of metastases/mouse (M ± m) [1, 3]: 4 ± 2 | Volume of metastases/mouse (M ± m) [1, 3]: 2.5 ± 1.7* mm^3 | Number of animals in the group with metastases [1, 4]: 75% | Number of metastases/mouse (M ± m) [1, 4]: 6.4 ± 2.5 | Volume of metastases/mouse (M ± m) [1, 4]: 3.3 ± 2* mm^3 | suppression of the metastatic process (tumor size, surviving animals, number of metastases), words [2]: confirmed the efficacy
